Data: article PMC8110578, “Phenylethynylbenzyl-modified biguanides inhibit pancreatic cancer tumor growth” (Scientific Reports, 2021)

Key:
red blood cells = test: Hemolytic activity of PEB-biguanidium salts; format: cell-based; settings: red blood cells 2% v/v in PBS, 1 h at 37 °C
Description: The toxicity of PEB-Biguanidiums salts was estimated through their hemolytic activity by incubating red blood cells (RBC) with the compounds for 1 h (See Supplementary Table S13 and Supplementary Fig. S29).
Experimental. Red blood cells in Alsever’s solution were centrifuged for 10 min at 300g, washed 3 times with PBS buffer, and resuspended in PBS at 2% v/v. To each well of a 96-well plate, 195 µL of red blood cell solution and 5 µL of biguanidium salt in DMSO were added, and the plate was incubated with light agitation for 1 h at 37 °C. The plate was then centrifuged for 10 min at 300g, and 50 µL of the supernatant solution of each well was transferred to another plate. Absorbance was measured at λ = 405 nm. Each measurement was performed in triplicate in three different experiments.

[1] = Lucigenin assay, chloride transport in EYPC liposomes; settings: lucigenin-containing liposomes
Text: Phospholipid vesicles can be used as models for studying membrane insertion and permeabilization. Using an anion-selective probe in synthetic phospholipid liposomes, anion transport can be monitored by fluorescence. […] This basification was further enhanced with the addition of a base pulse to the external solution at 300 s, indicating either a transport of protons to the extravesicular solution, or the transport of hydroxyls to the intravesicular solution. This was also reported for alkylbiguanidium salts and was described as an electrogenic process, i.e. the transmembrane transport of an ion without the balance of the charge through the movement of another ion, which usually results in a charge transfer. […] […]. The transport of H^+/OH^− ions across the membrane is an electrogenic mechanism that usually causes the depolarization of the electrochemical gradient across phospholipid membranes. When EYPC-LUVs liposomes containing intravesicular K^+ ions are bathing in an extravesicular solution containing Na^+ ions a small membrane potential is generated at their membranes, and the fluorescence of Safranin-O can be used as a membrane potential probe. […].
Experimental. […] The fluorescence was monitored for 350 s.

[2] = test system: mitochondria of KP4 cells expressing pMXs-3XHA-EGFP-OMP25; test: Mitochondrial permeation and accumulation (anti-HA IP, MALDI-MS); format: cell-based, human; settings: 15 µM, 3 h
Description: Figure 2 (A) Partition of compounds in an U-tube experiment. Concentration of biguanide on the trans-side of the U-tube at 48 h and 72 h at 25 °C, after addition of 250 µM of biguanide on the cis-side. (B) Variation in the internal pH of HPTS-containing EYPC liposomes. Intravesicular solution: 1 mM HPTS, 10 mM HEPES, and 100 mM NaCl, adjusted to pH = 7.4, and extravesicular solution: 10 mM HEPES and 100 mM NaCl, adjusted to pH = 7.4. Biguanidiums were injected after 50 s at 5 mM (50 mol% relative to the 10 mM EYPC concentration), a NaOH pulse was induced at 300 s, and the liposomes were lysed with Triton-X at 550 s. Each curve is the average of three independent measurements. (C) Fluorescence of safranin O in the EYPC liposomes. Biguanidium salts were injected at 5 mM (50 mol% relative to the 10 mM EYPC concentration) at 50 s. Each curve is the average of three independent measurements. […] Mitochondrial isolation was performed according to the previously reported protocol.

KP4 cells = test: Cell death assay (trypan blue), KP4 cells; format: cell-based, human; settings: 15 µM for 24 h
Text: Experimental. […] At the end of the treatments, adherent cells were recovered by trypsinization, along with floating cells recovered by centrifugation of the culture medium. Floating and adherent cells were pooled together. The faction of dead cells was quantified by counting the proportion of trypan blue-positive (dead cells) and the proportion of living cells (trypan blue-negative).

[3] = test system: KP4 cells sub-cutaneous xenografts; test: KP4 sub-cutaneous xenografts in nude mice; settings: 50 mg/kg/day IP, 5 day/week
Text: This dose was chosen from previous work on biguanides to treat mice with pancreatic cancer.
Figure 5 Progression of the volume of KP4 cells sub-cutaneous xenografts performed in nude mice over 37 days. […] (B) Body weight of mice seven days after treatment. […] Representative images shown. Scale bar = 100 µm. […] Results are shown in graphics comparing the percentage of cells stained in each category and the intensity of staining. (E,G) Images of the most representative phenotypes for KI67 staining (E) and cleaved caspase 3 (G).
Experimental. All experiments were performed in accordance to the rules of the in vivo ethical committe of University of Montreal (CDEA #17-103). 6-7 weeks old female nude mice (Hsd:Athymic Nude- Foxn1nu, Envigo) were implanted sub-cutaneously with 750.000 KP4 cells in 100μl of a sterile mix of 20% Matrigel (Corning) in saline solution. Tumor volume was determined by using a caliper, following the formula 4/3*Π*(L*W*T) were L represent the length of the tumor, W, the width, and T, the thickness (all measured in millimeter). […] The compounds were dissolved in the vehicle: 45% Propyleneglycol (Sigma-Aldrich) +5% Tween 80 (Sigma-Aldrich) + ddH2O.

[4] = Solubility in methanol and DMSO; format: physicochemical; settings: even at high concentrations
KP4 tumor sections = test: KI67 and cleaved caspase 3 staining of tumor sections from treated mice; format: in vivo, nude mice; settings: 50 mg/kg, tumor sections after treatment
Text: (B) Body weight of mice seven days after treatment. […] Representative images shown. Scale bar = 100 µm.
To assess the mechanism of the antitumor activity, we stained tumor sections obtained from animals after the treatment protocol for proliferation marker KI67 and apoptosis marker cleaved caspase 3, and quantified the data according to the scoring key in Fig. 5C. […] However, there were no significant differences in staining for cleaved caspase 3 […].

## N=C(N)NC(=N)NCc1ccc(C#Cc2ccccc2)cc1 [1b, 4-(phenylethynyl)benzylbiguanide]
Red blood cells
  HC 10% (µM): > 227 µM
  HC 10% (µg/ml): > 100 µg/mL
[1]
  Chloride transport across EYPC-LUV membrane: did not transport chloride
[2]
  Mitochondrial penetration: able to efficiently penetrate mitochondria
KP4 cells
  Increase of the fraction of dead KP4 cells: ~ 20%
[3]
  Effect on body weight: did not affect body weight
  Tolerability in vivo: well tolerated
[3]; from day 11 post engraftment, 37 days
  Effect on tumor volume: significantly reduced tumor volume
[4]
  Solubility in methanol and DMSO: good methanol and DMSO solubility even at high concentrations
KP4 tumor sections
  KI67 staining in tumors: reduced KI67 staining in tumors
